Measured values reported in the NIST ThermoML archive (doi:10.1021/acs.jced.7b00999).
Numbers after ± are expanded uncertainties.

Details: Liquid, Ebulliometric method (Recirculating still)

CCC(C)OC(C)=O (stereo not drawn) [1-methylpropyl ethanoate]
vapor or sublimation pressure (385.15 K): 101.3 ± 1 kPa

CCCCCCC [heptane]
vapor or sublimation pressure (371.58 K): 100 ± 1 kPa

CC1CCCCC1 [methylcyclohexane]
vapor or sublimation pressure (374.08 K): 101.3 ± 1 kPa
